Data taken from patent US20200264182A1, “METHOD FOR DETECTING PROSTATE CANCER” (J-OIL MILLS, INC., priority 2017, published 2020).
Where no end group is shown, it is not given here.

Assays:
[1] = FAC binding constant (Table 5 entry); settings: Table 5: sugar chain having no fucose; at 25° C.
How it was run: (§1)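 FAC was run at 25° C to derive binding constants, using the fucose α1→6 specific lectins PhoSL, SRL, NSL and LSL against several sugar chains.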

[2] = FAC binding constant; settings: at 25° C.
How it was run: as §1

[3] = sugar chain having fucose other than α1→6 fucose

Binding constant for sugar chain No. 728 [1]: <1000 M⁻¹
Binding constant for sugar chain No. 728 ([2]; Table 3: sugar chain having fucose other than α1→6 fucose): <1000 M⁻¹
Binding constant for sugar chain No. 419 [2, 3]: <1000 M⁻¹
Binding constant for sugar chain No. 420 [2, 3]: <1000 M⁻¹
Binding constant for sugar chain No. 718 [2, 3]: <1000 M⁻¹
Binding constant for sugar chain No. 719 [2, 3]: <1000 M⁻¹
Binding constant for sugar chain No. 720 [2, 3]: <1000 M⁻¹
Binding constant for sugar chain No. 721 [2, 3]: <1000 M⁻¹
Binding constant for sugar chain No. 722 [2, 3]: <1000 M⁻¹
Binding constant for sugar chain No. 723 [2, 3]: <1000 M⁻¹
Binding constant for sugar chain No. 726 [2, 3]: <1000 M⁻¹
Binding constant for sugar chain No. 727 [2, 3]: <1000 M⁻¹
Binding constant for sugar chain No. 729 [2, 3]: <1000 M⁻¹
Binding constant for sugar chain No. 730 [2, 3]: <1000 M⁻¹
Binding constant for sugar chain No. 731 [2, 3]: <1000 M⁻¹
Binding constant for sugar chain No. 739 [2, 3]: <1000 M⁻¹
Binding constant for sugar chain No. 909 [2, 3]: <1000 M⁻¹
Binding constant for sugar chain No. 910 [2, 3]: <1000 M⁻¹
Binding constant for sugar chain No. 931 [2, 3]: <1000 M⁻¹
Binding constant for sugar chain No. 932 [2, 3]: <1000 M⁻¹
Binding constant for sugar chain No. 933 [2, 3]: <1000 M⁻¹
Binding constant for sugar chain No. 001 ([2]; sugar chain having no fucose): <1000 M⁻¹
Binding constant for sugar chain No. 002 ([2]; sugar chain having no fucose): <1000 M⁻¹
Binding constant for sugar chain No. 003 ([2]; sugar chain having no fucose): <1000 M⁻¹
Binding constant for sugar chain No. 004 ([2]; sugar chain having no fucose): <1000 M⁻¹
Binding constant for sugar chain No. 005 ([2]; sugar chain having no fucose): <1000 M⁻¹
Binding constant for sugar chain No. 006 ([2]; sugar chain having no fucose): <1000 M⁻¹
Binding constant for sugar chain No. 007 ([2]; sugar chain having no fucose): <1000 M⁻¹
Binding constant for sugar chain No. 008 ([2]; sugar chain having no fucose): <1000 M⁻¹
Binding constant for sugar chain No. 009 ([2]; sugar chain having no fucose): <1000 M⁻¹
Binding constant for sugar chain No. 010 ([2]; sugar chain having no fucose): <1000 M⁻¹
Binding constant for sugar chain No. 011 ([2]; sugar chain having no fucose): <1000 M⁻¹
Binding constant for sugar chain No. 012 ([2]; sugar chain having no fucose): <1000 M⁻¹
Binding constant for sugar chain No. 013 ([2]; sugar chain having no fucose): <1000 M⁻¹
Binding constant for sugar chain No. 014 ([2]; sugar chain having no fucose): <1000 M⁻¹
Binding constant for sugar chain No. 101 ([2]; sugar chain having no fucose): <1000 M⁻¹
Binding constant for sugar chain No. 103 ([2]; sugar chain having no fucose): <1000 M⁻¹
Binding constant for sugar chain No. 104 ([2]; sugar chain having no fucose): <1000 M⁻¹
Binding constant for sugar chain No. 105 ([2]; sugar chain having no fucose): <1000 M⁻¹
Binding constant for sugar chain No. 107 ([2]; sugar chain having no fucose): <1000 M⁻¹
Binding constant for sugar chain No. 108 ([2]; sugar chain having no fucose): <1000 M⁻¹
Binding constant for sugar chain No. 301 ([2]; sugar chain having no fucose): <1000 M⁻¹
Binding constant for sugar chain No. 304 ([2]; sugar chain having no fucose): <1000 M⁻¹
Binding constant for sugar chain No. 305 ([2]; sugar chain having no fucose): <1000 M⁻¹
Binding constant for sugar chain No. 307 ([2]; sugar chain having no fucose): <1000 M⁻¹
Binding constant for sugar chain No. 308 ([2]; sugar chain having no fucose): <1000 M⁻¹
Binding constant for sugar chain No. 313 ([2]; sugar chain having no fucose): <1000 M⁻¹
Binding constant for sugar chain No. 314 ([2]; sugar chain having no fucose): <1000 M⁻¹
Binding constant for sugar chain No. 323 ([2]; sugar chain having no fucose): <1000 M⁻¹
Binding constant for sugar chain No. 501 ([2]; sugar chain having no fucose): <1000 M⁻¹
Binding constant for sugar chain No. 502 ([2]; sugar chain having no fucose): <1000 M⁻¹
Binding constant for sugar chain No. 503 ([2]; sugar chain having no fucose): <1000 M⁻¹
Binding constant for sugar chain No. 504 ([2]; sugar chain having no fucose): <1000 M⁻¹
Binding constant for sugar chain No. 701 ([2]; sugar chain having no fucose): <1000 M⁻¹
Binding constant for sugar chain No. 702 ([2]; sugar chain having no fucose): <1000 M⁻¹
Binding constant for sugar chain No. 703 ([2]; sugar chain having no fucose): <1000 M⁻¹
Binding constant for sugar chain No. 704 ([2]; sugar chain having no fucose): <1000 M⁻¹
Binding constant for sugar chain No. 705 ([2]; sugar chain having no fucose): <1000 M⁻¹
Binding constant for sugar chain No. 706 ([2]; sugar chain having no fucose): <1000 M⁻¹
Binding constant for sugar chain No. 707 ([2]; sugar chain having no fucose): <1000 M⁻¹
Binding constant for sugar chain No. 708 ([2]; sugar chain having no fucose): <1000 M⁻¹
Binding constant for sugar chain No. 709 ([2]; sugar chain having no fucose): <1000 M⁻¹
Binding constant for sugar chain No. 710 ([2]; sugar chain having no fucose): <1000 M⁻¹
Binding constant for sugar chain No. 711 ([2]; sugar chain having no fucose): <1000 M⁻¹
Binding constant for sugar chain No. 712 ([2]; sugar chain having no fucose): <1000 M⁻¹
Binding constant for sugar chain No. 713 ([2]; sugar chain having no fucose): <1000 M⁻¹
Binding constant for sugar chain No. 715 ([2]; sugar chain having no fucose): <1000 M⁻¹
Binding constant for sugar chain No. 716 ([2]; sugar chain having no fucose): <1000 M⁻¹
Binding constant for sugar chain No. 717 ([2]; sugar chain having no fucose): <1000 M⁻¹
Binding constant for sugar chain No. 724 ([2]; sugar chain having no fucose): <1000 M⁻¹
Binding constant for sugar chain No. 725 ([2]; sugar chain having no fucose): <1000 M⁻¹
Binding constant for sugar chain No. 732 ([2]; sugar chain having no fucose): <1000 M⁻¹
Binding constant for sugar chain No. 733 ([2]; sugar chain having no fucose): <1000 M⁻¹
Binding constant for sugar chain No. 734 ([2]; sugar chain having no fucose): <1000 M⁻¹
Binding constant for sugar chain No. 735 ([2]; sugar chain having no fucose): <1000 M⁻¹
Binding constant for sugar chain No. 736 ([2]; sugar chain having no fucose): <1000 M⁻¹
Binding constant for sugar chain No. 737 ([2]; sugar chain having no fucose): <1000 M⁻¹
Binding constant for sugar chain No. 738 ([2]; sugar chain having no fucose): <1000 M⁻¹
Binding constant for sugar chain No. 901 ([2]; sugar chain having no fucose): <1000 M⁻¹
Binding constant for sugar chain No. 902 ([2]; sugar chain having no fucose): <1000 M⁻¹
Binding constant for sugar chain No. 903 ([2]; sugar chain having no fucose): <1000 M⁻¹
Binding constant for sugar chain No. 905 ([2]; sugar chain having no fucose): <1000 M⁻¹
Binding constant for sugar chain No. 906 ([2]; sugar chain having no fucose): <1000 M⁻¹
Binding constant for sugar chain No. 907 ([2]; sugar chain having no fucose): <1000 M⁻¹
Binding constant for sugar chain No. 015 ([2]; sugar chain having α1→6 fucose): 500000 M⁻¹
Binding constant for sugar chain No. 201 ([2]; sugar chain having α1→6 fucose): 460000 M⁻¹
Binding constant for sugar chain No. 202 ([2]; sugar chain having α1→6 fucose): 400000 M⁻¹
Binding constant for sugar chain No. 203 ([2]; sugar chain having α1→6 fucose): 330000 M⁻¹
Binding constant for sugar chain No. 401 ([2]; sugar chain having α1→6 fucose): 350000 M⁻¹
Binding constant for sugar chain No. 402 ([2]; sugar chain having α1→6 fucose): 200000 M⁻¹
Binding constant for sugar chain No. 403 ([2]; sugar chain having α1→6 fucose): 340000 M⁻¹
Binding constant for sugar chain No. 404 ([2]; sugar chain having α1→6 fucose): 390000 M⁻¹
Binding constant for sugar chain No. 405 ([2]; sugar chain having α1→6 fucose): 320000 M⁻¹
Binding constant for sugar chain No. 406 ([2]; sugar chain having α1→6 fucose): 220000 M⁻¹
Binding constant for sugar chain No. 407 ([2]; sugar chain having α1→6 fucose): 280000 M⁻¹
Binding constant for sugar chain No. 410 ([2]; sugar chain having α1→6 fucose): 220000 M⁻¹
Binding constant for sugar chain No. 413 ([2]; sugar chain having α1→6 fucose): 280000 M⁻¹
Binding constant for sugar chain No. 418 ([2]; sugar chain having α1→6 fucose): 220000 M⁻¹
Binding constant for sugar chain No. 601 ([2]; sugar chain having α1→6 fucose): 240000 M⁻¹
Binding constant for sugar chain No. 602 ([2]; sugar chain having α1→6 fucose): 120000 M⁻¹
Substance: PhoSL: fucose α1→6 specific lectin that can be extracted from Pholiota squarrosa, SEQ ID No. 1 (APVPVTKLVCDGDTYKCTAYLDFGDGRWVAQWDTNVFHTG; not fully specified; ends and bridges not checked)
